Read-outs that look alike come from different tables or passages of the source.
Experiments:
NCI-H358 (K-Ras G12C) = test: CellTiter-Glo cell viability assay, 5-day treatment; format: cell-based; conditions: Homo sapiens
Method: Protocol: CellTiter-Glo® Cell Viability Assay
Note—The following protocol describes a procedure for monitoring cell viability of K-Ras mutant cancer cell lines in response to a compound of the invention. Other RAS isoforms may be employed, though the number of cells to be seeded will vary based on cell line used.
(§1) Test compounds (132.5 nL) were directly dispensed into the assay plates containing cells. […] On day 5, assay plates and their contents were equilibrated to room temperature for approximately 30 minutes. […] Luminescence was measured using the PerkinElmer Enspire. Data were normalized by the following: (Sample signal/Avg. DMSO)*100. The data were fit using a four-parameter logistic fit.
as §1, with “nl)” for “nL)”

KRAS G12C = KRAS G12C (Homo sapiens, UniProt P01116+P62937, G12C); test: Disruption of BRAF RBD interaction with Ras (FRET / MOA assay, with Cyclophilin A); format: biochemical
KRAS G12C, sequence (P01116 1-169 isoform P01116-2 G12C): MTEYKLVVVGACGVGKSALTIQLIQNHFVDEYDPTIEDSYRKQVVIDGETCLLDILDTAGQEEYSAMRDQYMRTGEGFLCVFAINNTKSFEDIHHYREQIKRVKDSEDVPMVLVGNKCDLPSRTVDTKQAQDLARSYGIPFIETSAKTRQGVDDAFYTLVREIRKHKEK
KRAS G12C, sequence (P62937 whole entry): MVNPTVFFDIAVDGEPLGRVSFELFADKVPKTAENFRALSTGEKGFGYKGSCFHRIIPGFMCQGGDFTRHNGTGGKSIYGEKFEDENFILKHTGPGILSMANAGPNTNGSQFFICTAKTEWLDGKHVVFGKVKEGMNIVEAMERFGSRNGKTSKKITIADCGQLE
Text: (§2) This protocol may also be executed substituting other Ras proteins or nucleotides.
(§3) The purpose of this biochemical assay was to measure the ability of test compounds to facilitate ternary complex formation between a nucleotide-loaded K-Ras isoform and Cyclophilin A; the resulting ternary complex disrupts binding to a BRAF^RBD construct, inhibiting K-Ras signaling through a RAF effector. Data is reported as IC50 values.
(§4) Compound was present in plate wells as a 10-point 3-fold dilution series starting at a final concentration of 30 μM. After incubation at 25° C. for 3 hours, a mixture of Anti-His Eu-W1024 and anti-GST allophycocyanin was then added to assay sample wells at final concentrations of 10 nM and 50 nM, respectively, and the reaction incubated for an additional 1.5 hours. […] Compounds that facilitate disruption of a K-Ras:RAF complex were identified as those eliciting a decrease in the TR-FRET ratio relative to DMSO control wells.
as §3, with “BRAF^RBDD” for “BRAF^RBD”

KRAS G12D = KRAS G12D (Homo sapiens, UniProt P01116+P62937, G12D); test: as above; format: biochemical; conditions: read-out: KRAS G12D FRET data, IC50
KRAS G12D, sequence (P01116 1-169 isoform P01116-2 G12D limits assumed): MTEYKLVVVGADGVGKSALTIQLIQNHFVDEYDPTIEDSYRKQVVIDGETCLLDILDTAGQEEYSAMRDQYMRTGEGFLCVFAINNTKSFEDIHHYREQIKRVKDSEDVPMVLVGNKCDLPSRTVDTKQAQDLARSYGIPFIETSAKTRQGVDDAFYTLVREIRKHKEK
KRAS G12D, sequence (P62937 whole entry): as the sequence (P62937 whole entry) above
Text: as §2, §3, §4
as §3, with “BRAF^RBDD” for “BRAF^RBD”

KRAS G12S = KRAS G12S (Homo sapiens, UniProt P01116+P62937, G12S); test: as above; format: biochemical; conditions: read-out: KRAS G12S FRET data, IC50
KRAS G12S, sequence (P01116 1-169 isoform P01116-2 G12S limits assumed): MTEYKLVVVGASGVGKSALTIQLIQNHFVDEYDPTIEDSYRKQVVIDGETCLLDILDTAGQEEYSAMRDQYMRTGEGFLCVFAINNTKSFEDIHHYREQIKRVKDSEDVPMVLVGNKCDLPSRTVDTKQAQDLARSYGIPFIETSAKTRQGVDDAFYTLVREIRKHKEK
KRAS G12S, sequence (P62937 whole entry): as the sequence (P62937 whole entry) above
Text: as §2, §3, §4
as §3, with “BRAF^RBDD” for “BRAF^RBD”

KRAS G12V = KRAS G12V (Homo sapiens, UniProt P01116+P62937, G12V); test: as above; format: biochemical; conditions: KRAS G12V; read-out: KRAS G12V FRET data IC50
KRAS G12V, sequence (P01116 1-169 isoform P01116-2 G12V limits assumed): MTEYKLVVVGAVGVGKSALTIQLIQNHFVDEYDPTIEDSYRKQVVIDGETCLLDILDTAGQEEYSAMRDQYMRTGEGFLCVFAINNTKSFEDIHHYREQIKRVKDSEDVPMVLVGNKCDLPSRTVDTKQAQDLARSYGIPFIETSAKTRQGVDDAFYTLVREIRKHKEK
KRAS G12V, sequence (P62937 whole entry): as the sequence (P62937 whole entry) above
Text: as §2, §3, §4
as §3, with “BRAF^RBDD” for “BRAF^RBD”

KRAS G13C = KRAS G13C (Homo sapiens, UniProt P01116+P62937, G13C); test: as above; format: biochemical
KRAS G13C, sequence (P01116 1-169 isoform P01116-2 G13C): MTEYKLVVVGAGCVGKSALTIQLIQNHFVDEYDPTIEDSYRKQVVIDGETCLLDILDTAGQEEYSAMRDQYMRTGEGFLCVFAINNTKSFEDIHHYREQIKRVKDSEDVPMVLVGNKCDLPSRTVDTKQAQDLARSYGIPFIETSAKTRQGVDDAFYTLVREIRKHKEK
KRAS G13C, sequence (P62937 whole entry): as the sequence (P62937 whole entry) above
Text: as §2, §3, §4
as §3, with “BRAF^RBDD” for “BRAF^RBD”

KRAS G13D = KRAS G13D (Homo sapiens, UniProt P01116+P62937, G13D); test: as above; format: biochemical; conditions: KRAS G13D; read-out: KRAS G13D FRET data IC50
KRAS G13D, sequence (P01116 1-169 isoform P01116-2 G13D limits assumed): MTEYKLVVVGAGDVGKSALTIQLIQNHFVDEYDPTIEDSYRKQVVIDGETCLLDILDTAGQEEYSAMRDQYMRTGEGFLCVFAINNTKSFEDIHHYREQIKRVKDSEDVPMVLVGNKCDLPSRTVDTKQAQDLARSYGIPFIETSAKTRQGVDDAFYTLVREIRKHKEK
KRAS G13D, sequence (P62937 whole entry): as the sequence (P62937 whole entry) above
Text: as §2, §3, §4
as §3, with “BRAF^RBDD” for “BRAF^RBD”

KRAS WT = KRAS WT (Homo sapiens, UniProt P01116+P62937); test: as above; format: biochemical; conditions: KRAS WT; read-out: KRAS WT FRET data IC50
KRAS WT, sequence (P01116 1-169 isoform P01116-2 limits assumed): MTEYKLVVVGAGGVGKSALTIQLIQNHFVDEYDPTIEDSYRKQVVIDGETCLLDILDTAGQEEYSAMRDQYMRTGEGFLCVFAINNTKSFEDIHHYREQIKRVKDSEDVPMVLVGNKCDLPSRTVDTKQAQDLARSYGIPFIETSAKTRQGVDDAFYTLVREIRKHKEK
KRAS WT, sequence (P62937 whole entry): as the sequence (P62937 whole entry) above
Text: as §2, §3, §4
as §3, with “BRAF^RBDD” for “BRAF^RBD”

NRAS G12C = NRAS G12C (Homo sapiens, UniProt P01111+P62937, G12C); test: as above; format: biochemical; conditions: NRAS G12C; read-out: NRAS G12C FRET data IC50
NRAS G12C, sequence (P01111 whole entry G12C): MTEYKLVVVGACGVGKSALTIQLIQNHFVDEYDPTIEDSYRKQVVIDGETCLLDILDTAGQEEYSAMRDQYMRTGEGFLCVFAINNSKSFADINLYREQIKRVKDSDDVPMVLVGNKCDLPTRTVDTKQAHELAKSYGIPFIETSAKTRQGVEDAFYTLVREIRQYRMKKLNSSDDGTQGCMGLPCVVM
NRAS G12C, sequence (P62937 whole entry): as the sequence (P62937 whole entry) above
Text: as §2, §3, §4
as §3, with “BRAF^RBDD” for “BRAF^RBD”

[1] = NCI-H358, H358, K-Ras G12C, read-out: Additional H358 Cell Viability assay data (K-Ras G12C, IC50)
[2] = KRAS G12C, read-out: KRAS G12C FRET data IC50
[3] = KRAS G13C, read-out: KRAS G13C FRET data IC50
[4] = NCI-H358, 120 h, 5-day treatment, read-out: H358 Cell Viability assay data (K-Ras G12C, IC50)
[5] = read-out: KRAS G12C FRET data, IC50
[6] = read-out: KRAS G13C FRET data, IC50

SMILES | IC50 (NCI-H358 (K-Ras G12C); [1]) [nM] | IC50 (KRAS G12C; [2]) [nM] | IC50 (KRAS G12D) [nM] | IC50 (KRAS G12S) [nM] | IC50 (KRAS G12V) [nM] | IC50 (KRAS G13D) [nM] | IC50 (KRAS WT) [nM] | IC50 (NRAS G12C) [nM] | IC50 (NCI-H358 (K-Ras G12C); [4]) [nM] | IC50 (KRAS G12C; [5]) [nM] | IC50 (KRAS G13C; [6]) [nM] | IC50 (KRAS G13C; [3]) [nM]
C=CC(=O)N1C[C@@H](C(=O)N(C)[C@H](C(=O)N[C@H]2Cc3cccc(c3)-c3ccc4c(c3)c(c(-c3cccnc3[C@H](C)OC)n4CC)CC(C)(C)COC(=O)[C@@H]3CCCN(N3)C2=O)C(C)C)[C@@H](C(F)(F)F)C1 [Example A401] | 100 to 1000 | 1000 to 10000 | > 10000 | 1000 to 10000 | 1000 to 10000 | 1000 to 10000 | 1000 to 10000 | 1000 to 10000 | – | – | – | 100 to 1000
CCn1c(-c2cccnc2[C@H](C)OC)c2c3cc(ccc31)-c1cc(O)cc(c1)C[C@H](NC(=O)[C@H](C(C)C)N(C)C(=O)[C@@H]1CNC[C@@H]1C)C(=O)N1CCC[C@H](N1)C(=O)OCC(C)(C)C2 [Example A128] | – | – | 10 to 100 | 10 to 100 | 100 to 1000 | 10 to 100 | 10 to 100 | 10 to 100 | 1000 to 10000 | – | 10 to 100 | –
CCn1c(-c2cnccc2COC)c2c3cc(ccc31)-c1cc(O)cc(c1)C[C@H](NC(=O)[C@H](C(C)C)N(C)C(=O)[C@H]1CCN(C(C)C)C1)C(=O)N1CCC[C@H](N1)C(=O)OCC(C)(C)C2 [Example A41] | – | – | 100 to 1000 | 100 to 1000 | 1000 to 10000 | – | 100 to 1000 | – | 1000 to 10000 | 100 to 1000 | 10 to 100 | –
C=CC(=O)N1CC(OC[C@H](C(=O)N[C@H]2Cc3cccc(c3)-c3ccc4c(c3)c(c(-c3cccnc3[C@H](C)OC)n4CC(F)(F)F)CC(C)(C)COC(=O)[C@@H]3CCCN(N3)C2=O)C(C)C)C1 [Example A453] | 100 to 1000 | 1000 to 10000 | – | > 10000 | > 10000 | > 10000 | > 10000 | 1000 to 10000 | – | – | – | > 10000

Second part, led by results:

IC50 (NCI-H358 (K-Ras G12C); [1]) [nM] | IC50 (KRAS G12C; [2]) [nM] | IC50 (KRAS G12D) [nM] | IC50 (KRAS G12S) [nM] | IC50 (KRAS G12V) [nM] | IC50 (KRAS G13D) [nM] | IC50 (KRAS WT) [nM] | IC50 (NRAS G12C) [nM] | IC50 (NCI-H358 (K-Ras G12C); [4]) [nM] | IC50 (KRAS G12C; [5]) [nM] | IC50 (KRAS G13C; [6]) [nM] | SMILES | IC50 (KRAS G13C; [3]) [nM]
– | – | 1000 to 10000 | 100 to 1000 | 100 to 1000 | 1000 to 10000 | 100 to 1000 | – | 1000 to 10000 | 100 to 1000 | 100 to 1000 | CCn1c(-c2cccnc2COC)c2c3cc(ccc31)-c1cc(O)cc(c1)C[C@H](NC(=O)[C@H](C(C)C)N(C)C(=O)[C@H]1CCN(C(C)=O)C1)C(=O)N1CCC[C@H](N1)C(=O)OCC(C)(C)C2 [Example A22] | –
> 1000 | > 10000 | – | – | – | > 10000 | – | > 10000 | – | – | – | C=CC(=O)N1CC[C@H](C(=O)N(C)[C@H](C(=O)N[C@H]2CCC(=O)N(C)Cc3ccc4c(c3)c(c(-c3cccnc3[C@H](C)OC)n4CC)CC(C)(C)COC(=O)[C@@H]3CCCN(N3)C2=O)C(C)C)C1 [Example A500] | –
– | – | – | – | 10 to 100 | – | – | – | 10 to 100 | – | – | CCn1c(-c2cccnc2[C@H](C)OC)c2c3cc(ccc31)-c1cc(O)cc(c1)C[C@H](NC(=O)[C@H](C(C)C)N(C)C(=O)[C@@H]1C[C@@H]1F)C(=O)N1CCC[C@H](N1)C(=O)OCC(C)(C)C2 [Example A160] | –
– | – | 100 to 1000 | 10 to 100 | 100 to 1000 | 10 to 100 | 10 to 100 | 10 to 100 | 1000 to 10000 | 10 to 100 | 10 to 100 | CCn1c(-c2cnccc2COC)c2c3cc(ccc31)-c1cc(O)cc(c1)C[C@H](NC(=O)[C@H](C(C)C)N(C)C(=O)[C@H]1CCNC1)C(=O)N1CCC[C@H](N1)C(=O)OCC(C)(C)C2 [Example A10] | –
– | – | 100 to 1000 | 100 to 1000 | 1000 to 10000 | – | 100 to 1000 | – | > 10000 | 100 to 1000 | 100 to 1000 | CCn1c(-c2cccnc2COC)c2c3cc(ccc31)-c1cc(O)cc(c1)C[C@H](NC(=O)[C@H](C(C)C)N(C)C(=O)[C@H](N)CCCNC(=N)N)C(=O)N1CCC[C@H](N1)C(=O)OCC(C)(C)C2 [Example A48] | –

— patent US20230233569A1 (Revolution Medicines, Inc., priority 2020, published 2023)
